The values that follow come from the NIST ThermoML archive (doi:10.1021/je034159d).

Each structure is given as a SMILES string. ± gives the expanded uncertainty stated by the source.

Series [1] can be described thus: refractive index (Na D-line) (dimensionless). The following applies: 313.15 K; 101.33 kPa; Liquid; refractometer.
The conditions of series [2]: 313.15 K; 101.33 kPa; Liquid; Vibrating tube method.

Turning to `CCOC(=O)OCC` [diethyl carbonate], the refractive index in series [1] turned out to be 1.3754 ± 0.0001. For the same molecule, the mass density in series [2] is 952.43 ± 0.08 kg/m3.
On the same counts, the results for `COC(=O)OC` [dimethyl carbonate] are 1.359 ± 0.0001 and 1043.19 ± 0.08 kg/m3.

As a reminder, the refractive index is a measure of how strongly the sample bends light. What is called mass density is the mass of a sample divided by its volume.
